The term IC50 denotes the concentration needed to halve the response being measured.

Among the data in patent publication US9234000B2, “Benzylamine derivatives as inhibitors of plasma kallikrein” (KalVista Pharmaceuticals Limited, priority 2011, dated 2016) are IC50 values, retold here.

One assay concerns the target Human KLK1 (Homo sapiens (Human), UniProt P06870). The assay is described as follows: Determination of the IC50 for KLK1. It counts as biochemical. As to conditions: Human KLK1, 37° C., substrate H-DVal-Leu-Arg-AFC; Table 13. On the procedure: Determination of the IC50 for KLK1
(§1) KLK1 inhibitory activity in vitro was determined using standard published methods (see e.g. Johansen et al., Int. J. Tiss. Reac. 1986, 8, 185; Shori et al., Biochem. Pharmacol., 1992, 43, 1209; Stürzebecher et al., Biol. Chem. Hoppe-Seyler, 1992, 373, 1025). Human KLK1 (Callbiochem) was incubated at 37° C. with the fluorogenic substrate H-DVal-Leu-Arg-AFC and various concentrations of the test compound. Residual enzyme activity (initial rate of reaction) was determined by measuring the change in optical absorbance at 410 nm and the IC50 value for the test compound was determined.

The target in the next assay is Human plasma kallikrein (Homo sapiens (Human), UniProt P03952). The assay is described as follows: Determination of the IC50 for plasma kallikrein. It counts as biochemical. The conditions noted are these: 37° C., substrate H-DPro-Phe-Arg-AFC, read-out: IC50 (human PKal). On the procedure: Determination of the IC50 for Plasma Kallikrein
as §1, with “Plasma kallikrein” for “KLK1”, “Stiirzebecher” for “Stürzebecher”, “plasma kallikrein (Protogen)” for “KLK1 (Callbiochem)”, “H-DPro-Phe-Arg-AFC” for “H-DVal-Leu-Arg-AFC”

Sequence of Human plasma kallikrein (P03952 391-638): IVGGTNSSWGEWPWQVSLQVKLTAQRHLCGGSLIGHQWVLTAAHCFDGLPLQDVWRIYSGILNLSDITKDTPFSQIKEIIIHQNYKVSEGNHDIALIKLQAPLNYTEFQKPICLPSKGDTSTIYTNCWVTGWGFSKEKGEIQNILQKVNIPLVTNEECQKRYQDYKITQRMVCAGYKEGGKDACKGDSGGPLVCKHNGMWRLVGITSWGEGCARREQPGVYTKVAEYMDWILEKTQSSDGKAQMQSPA
Sequence of Human plasma kallikrein (P03952 20-390 partner): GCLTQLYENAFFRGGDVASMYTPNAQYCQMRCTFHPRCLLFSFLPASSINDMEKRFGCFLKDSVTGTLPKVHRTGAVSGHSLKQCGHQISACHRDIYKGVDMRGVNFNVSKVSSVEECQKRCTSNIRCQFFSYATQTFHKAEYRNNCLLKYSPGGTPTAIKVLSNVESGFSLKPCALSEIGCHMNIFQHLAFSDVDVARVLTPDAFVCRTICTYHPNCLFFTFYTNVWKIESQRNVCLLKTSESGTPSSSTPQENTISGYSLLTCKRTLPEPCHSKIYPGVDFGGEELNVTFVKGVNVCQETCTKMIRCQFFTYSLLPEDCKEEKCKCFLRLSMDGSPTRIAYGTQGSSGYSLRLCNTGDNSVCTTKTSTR
Sequence of Human KLK1 (P06870 25-262): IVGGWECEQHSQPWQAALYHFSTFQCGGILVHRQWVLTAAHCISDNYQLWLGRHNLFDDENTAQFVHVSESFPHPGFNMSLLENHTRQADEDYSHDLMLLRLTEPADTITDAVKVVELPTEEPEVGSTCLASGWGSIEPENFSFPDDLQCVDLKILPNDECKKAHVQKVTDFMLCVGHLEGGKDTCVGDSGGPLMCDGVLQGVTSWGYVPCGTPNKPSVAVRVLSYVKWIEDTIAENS

Consider `CCOc1ccc(C[C@@H](NC(=O)NC(C)C)C(=O)N[C@@H](Cc2ccccc2)C(=O)NCc2ccc(CN)cc2)cc1` [Example 77, (R)-N-[(S)-1-(4-Aminomethyl-benzylcarbamoyl)-2-phenyl-ethyl]-3-(4-ethoxy-phenyl)-2-(3-isopropyl-ureido)-propionamide], for which the IC50 is more than 10 µM against Human KLK1 and 1960 nM at Human plasma kallikrein.
Taken in the same sequence, the figures for `CCCCCCNC(=O)N[C@H](Cc1ccc(OCC)cc1)C(=O)N[C@@H](Cc1ccccc1)C(=O)NCc1ccc(CN)cc1` [Example 78, (R)-N-[(S)-1-(4-Aminomethyl-benzylcarbamoyl)-2-phenyl-ethyl]-3-(4-ethoxy-phenyl)-2-(3-hexyl-ureido)-propionamide] were more than 10 µM and 10000 nM.
Taken in the same sequence, the figures for `CCOc1ccc(C[C@@H](NC(=O)c2ccc(OC(F)(F)F)cc2)C(=O)N[C@@H](Cc2ccccc2)C(=O)NCc2ccc(CN)cc2)cc1` [Example 80, N-[(R)-1-[(S)-1-(4-Aminomethyl-benzylcarbamoyl)-2-phenyl-ethylcarbamoyl]-2-(4-ethoxy-phenyl)-ethyl]-4-trifluoromethoxy-benzamide] were more than 10 µM and 398 nM.
On to `CCOc1ccc(C[C@@H](NC(=O)c2cc(C)nn2C)C(=O)N[C@@H](Cc2ccccc2)C(=O)NCc2ccc(CN)cc2)cc1` [Example 82, 2,5-Dimethyl-2H-pyrazole-3-carboxylic acid [(R)-1-[(S)-1-(4-aminomethyl-benzylcarbamoyl)-2-phenyl-ethylcarbamoyl]-2-(4-ethoxy-phenyl)-ethyl]-amide], for which the IC50 was more than 10 µM against Human KLK1 and 539 nM on Human plasma kallikrein.
Taken in the same sequence, the figures for `CCOc1ccc(C[C@@H](NC(=O)c2cc3ccccc3s2)C(=O)N[C@@H](Cc2ccccc2)C(=O)NCc2ccc(CN)cc2)cc1` [Example 83, Benzo[b]thiophene-2-carboxylic acid[(R)-1-[(S)-1-(4-aminomethyl-benzylcarbamoyl)-2-phenyl-ethylcarbamoyl]-2-(4-ethoxy-phenyl)-ethyl]-amide] were more than 10 µM and 254 nM.
For `CCOc1ccc(C[C@@H](NC(=O)CCc2ccccc2)C(=O)N[C@@H](Cc2ccccc2)C(=O)NCc2ccc(CN)cc2)cc1` [Example 86, (S)-N-(4-Aminomethyl-benzyl)-2-[(R)-3-(4-ethoxy-phenyl)-2-(3-phenyl-propionylamino)-propionylamino]-3-phenyl-propionamide] the same measures were more than 10 µM and 423 nM.
Taken in the same sequence, the figures for `CCOc1ccc(C[C@@H](NC(=O)CCCc2ccccc2)C(=O)N[C@@H](Cc2ccccc2)C(=O)NCc2ccc(CN)cc2)cc1` [Example 87, N-[(R)-1-[(S)-1-(4-Aminomethyl-benzylcarbamoyl)-2-phenyl-ethylcarbamoyl]-2-(4-ethoxy-phenyl)-ethyl]-4-phenyl-butyramide] were 3.4 µM and 755 nM.
For the compound `CCOc1ccc(C[C@@H](NC(=O)c2ccccc2Cl)C(=O)N[C@@H](Cc2ccccc2)C(=O)NCc2ccc(CN)cc2)cc1` [Example 89, N-[(R)-1-[(S)-1-(4-Aminomethyl-benzylcarbamoyl)-2-phenyl-ethylcarbamoyl]-2-(4-ethoxy-phenyl)-ethyl]-2-chloro-benzamide], the results for the IC50 against Human KLK1 and on Human plasma kallikrein were 3.7 µM and 99 nM, respectively.
Taken in the same sequence, the figures for `CCOc1ccc(C[C@@H](NC(=O)c2cccc(C(F)(F)F)c2)C(=O)N[C@@H](Cc2ccccc2)C(=O)NCc2ccc(CN)cc2)cc1` [Example 90, N-[(R)-1-[(S)-1-(4-Aminomethyl-benzylcarbamoyl)-2-phenyl-ethylcarbamoyl]-2-(4-ethoxy-phenyl)-ethyl]-3-trifluoromethyl-benzamide] were more than 10 µM and 276 nM.
Regarding `CCOc1ccc(C[C@@H](NC(=O)CNC(=O)c2ccccc2)C(=O)N[C@@H](Cc2ccccc2)C(=O)NCc2ccc(CN)cc2)cc1` [Example 98, N-{[(R)-1-[(S)-1-(4-Aminomethyl-benzylcarbamoyl)-2-phenyl-ethylcarbamoyl]-2-(4-ethoxy-phenyl)-ethylcarbamoyl]-methyl}-benzamide], the IC50 stood at 5.1 µM on Human KLK1 and 576 nM at Human plasma kallikrein.
With `CCOc1ccc(C[C@@H](NS(=O)(=O)Cc2ccccc2)C(=O)N[C@@H](Cc2ccccc2)C(=O)NCc2ccc(CN)cc2)cc1` [Example 100, (R)-N-[(S)-1-(4-Aminomethyl-benzylcarbamoyl)-2-phenyl-ethyl]-3-(4-ethoxy-phenyl)-2-phenylmethanesulfonylamino-propionamide], the IC50 was determined as 2.9 µM at Human KLK1 and 474 nM at Human plasma kallikrein.
For `CCOc1ccc(C[C@@H](NC(=O)CNS(=O)(=O)c2ccc(C)cc2)C(=O)N[C@@H](Cc2ccccc2)C(=O)NCc2ccc(CN)cc2)cc1` [Example 101, (S)-N-(4-Aminomethyl-benzyl)-2-{(R)-3-(4-ethoxy-phenyl)-2-[2-(toluene-4-sulfonylamino)-acetylamino]-propionylamino}-3-phenyl-propionamide] the same measures were more than 10 µM and 1110 nM.
Regarding `CCOc1ccc(C[C@@H](NC(=O)Nc2ccc(Cl)cc2)C(=O)N[C@@H](Cc2ccccc2)C(=O)NCc2ccc(CN)cc2)cc1` [Example 102, (R)-N-[(S)-1-(4-Aminomethyl-benzylcarbamoyl)-2-phenyl-ethyl]-2-[3-(4-chloro-phenyl)-ureido]-3-(4-ethoxy-phenyl)-propionamide], the IC50 came to 9 µM at Human KLK1 and 10000 nM at Human plasma kallikrein.
For `CCOc1ccc(C[C@@H](NC(=O)N(CC)Cc2ccccc2)C(=O)N[C@@H](Cc2ccccc2)C(=O)NCc2ccc(CN)cc2)cc1` [Example 103, (R)-N-[(S)-1-(4-Aminomethyl-benzylcarbamoyl)-2-phenyl-ethyl]-2-(3-benzyl-3-ethyl-ureido)-3-(4-ethoxy-phenyl)-propionamide] the same measures were more than 10 µM and 10000 nM.
For `CCOc1ccc(C[C@@H](NC(=O)c2ccc(C)nc2)C(=O)N[C@@H](Cc2ccccc2)C(=O)NCc2ccc(CN)cc2)cc1` [Example 104, N-[(R)-1-[(S)-1-(4-Aminomethyl-benzylcarbamoyl)-2-phenyl-ethylcarbamoyl]-2-(4-ethoxy-phenyl)-ethyl]-6-methyl-nicotinamide] the same measures were more than 10 µM and 159 nM.
Taken in the same sequence, the figures for `CCOc1ccc(C[C@@H](NC(=O)c2cccnc2C)C(=O)N[C@@H](Cc2ccccc2)C(=O)NCc2ccc(CN)cc2)cc1` [Example 105, N-[(R)-1-[(S)-1-(4-Aminomethyl-benzylcarbamoyl)-2-phenyl-ethylcarbamoyl]-2-(4-ethoxy-phenyl)-ethyl]-2-methyl-nicotinamide] were more than 10 µM and 185 nM.
As to `CCOc1ccc(C[C@@H](NC(=O)c2ccc(Cl)nc2Cl)C(=O)N[C@@H](Cc2ccccc2)C(=O)NCc2ccc(CN)cc2)cc1` [Example 106, N-[(R)-1-[(S)-1-(4-Aminomethyl-benzylcarbamoyl)-2-phenyl-ethylcarbamoyl]-2-(4-ethoxy-phenyl)-ethyl]-2,6-dichloro-nicotinamide], the IC50 on Human KLK1 turned out to be 8.4 µM; at Human plasma kallikrein it was 256 nM.
For `CCOc1ccc(C[C@@H](NC(=O)c2cnc(Cl)c(Cl)c2)C(=O)N[C@@H](Cc2ccccc2)C(=O)NCc2ccc(CN)cc2)cc1` [Example 107, N-[(R)-1-[(S)-1-(4-Aminomethyl-benzylcarbamoyl)-2-phenyl-ethylcarbamoyl]-2-(4-ethoxy-phenyl)-ethyl]-5,6-dichloro-nicotinamide] the same measures were 7.5 µM and 133 nM.
Regarding `CCOc1ccc(C[C@@H](NC(=O)c2cc(F)nc(F)c2F)C(=O)N[C@@H](Cc2ccccc2)C(=O)NCc2ccc(CN)cc2)cc1` [Example 108, N-[(R)-1-[(S)-1-(4-Aminomethyl-benzylcarbamoyl)-2-phenyl-ethylcarbamoyl]-2-(4-ethoxy-phenyl)-ethyl]-2,3,6-trifluoro-isonicotinamide], the figures for the IC50 against Human KLK1 and on Human plasma kallikrein were more than 10 µM and 232 nM, respectively.
For `CCOc1ccc(C[C@@H](NC(=O)CC(F)(F)F)C(=O)N[C@@H](Cc2ccccc2)C(=O)NCc2ccc(CN)cc2)cc1` [Example 109, N-[(R)-1-[(S)-1-(4-Aminomethyl-benzylcarbamoyl)-2-phenyl-ethylcarbamoyl]-2-(4-ethoxy-phenyl)-ethyl]-3,3,3-trifluoro-propionamide] the same measures were more than 10 µM and 155 nM.
Taken in the same sequence, the figures for `CCOc1ccc(C[C@@H](NC(=O)c2cc(C)nc(Cl)c2)C(=O)N[C@@H](Cc2ccccc2)C(=O)NCc2ccc(CN)cc2)cc1` [Example 110, N-[(R)-1-[(S)-1-(4-Aminomethyl-benzylcarbamoyl)-2-phenyl-ethylcarbamoyl]-2-(4-ethoxy-phenyl)-ethyl]-2-chloro-6-methyl-isonicotinamide] were more than 10 µM and 598 nM.
For `CCOc1ccc(C[C@@H](NC(=O)c2sc(C)nc2C)C(=O)N[C@@H](Cc2ccccc2)C(=O)NCc2ccc(CN)cc2)cc1` [Example 111, 2,4-Dimethyl-thiazole-5-carboxylic acid [(R)-1-[(S)-1-(4-aminomethyl-benzylcarbamoyl)-2-phenyl-ethylcarbamoyl]-2-(4-ethoxy-phenyl)-ethyl]-amide], the figures for the IC50 against Human KLK1 and on Human plasma kallikrein were more than 10 µM and 58 nM, respectively.
